This passage reports IC50 results from US20260234164A1, “BIPHENYL COMPOUND AS IMMUNOMODULATOR, PREPARATION METHOD THEREFOR AND USE THEREOF” (SHENZHEN CHIPSCREEN BIOSCIENCES CO., LTD., priority 2021, published 2026).

Test [1] deals with T1, PD-1/PD-L1 binding (Homo sapiens, UniProt Q9NZQ7).
T1 construct: purchased Sino Biological Inc. 10084-H02H-100 (PD-L1-Fc); 10377-H08H-50 (His-PD-1)
Nature of the test: HTRF inhibition of PD-1/PD-L1 binding in vitro. To be noted: His-PD-1 100 nM, PD-L1-Fc 2 nM, read-out: IC50 inhibiting PD-1/PD-L1 binding in vitro. An excerpt: Homogeneous Time-Resolved Fluorescence (HTRF): This method used the recombinant human PD-L1 protein fused to express the hFc tag and the recombinant human PD-1 protein fused to express the His tag, both of which were interacting ligands and receptors. When the anti-hFc antibody containing Eu element chelation marker and the anti-His antibody labeled with XL665 fluorescein were bound with the above two corresponding labels, and excited by a laser with a wavelength of 320 nm, the ligand-receptor binding enabled the energy to be transferred from the Eu element to the XL665 fluorescein, which was excited to emit light at a wavelength of 665 nm. However, when an inhibitor of the interaction between PD-L1 and PD-1 was added, the binding of the ligand to the receptor was destroyed, so that the distance between Eu and XL665 was far away, the energy cannot be transferred, and XL665 would not be excited.
Recombinant human PD-1 protein with His tag (His-PD-1 protein, Cat #: 10377-H08H-50), and recombinant human PD-L1-Fc fusion protein (PD-L1-Fc fusion protein, Cat #: 10084-H02H-100) were purchased from Sino Biological Inc., […] and anti-His-XL665 antibody were purchased from Cisbio Company, and other related reagents such as dilution buffer (Diluent buffer 5, Cat #: 62DL5DDC), detection buffer (PPI-Europium detection buffer, Cat #: 61DB9RDF) were purchased from Cisbio Company. Fluorescence detection instrument Tecan (Spark 10 M) was purchased from Switzerland Tecan Company.
(1) Experimental preparation: The test compound was diluted with dilution buffer into different concentration gradients (the highest final concentration in 20 μL final reaction system was 10 μM), His-PD-1 protein was diluted to 800 nM (the final concentration in 20 μL final reaction system was 100 nM), and the PD-L1-Fc fusion protein was diluted to 16 nM (final concentration was 2 nM). The anti-His-XL665 antibody and anti-hFc-Eu^3+ antibody were respectively diluted 20 times and 100 times using the detection buffer according to the reagent requirements.
(2) 5 μL of test compound, 2.5 μL of PD-L1-Fc fusion protein and 2.5 μL of His-PD-1 protein solution were mixed, and incubated at room temperature for 15 min. Then the system was added with 5 μL of anti-His-XL665 antibody and 5 μL of anti-hFc-Eu^3+ antibody, incubated for another 3 h, and then detected.
(3) When detecting the reaction, a control group was also provided, including a 0% inhibition positive control without adding test compounds and a 100% inhibition negative control without adding PD-1 protein. All detections were performed with duplicates.
(4) The fluorescence signal of each well was measured using a fluorescence detector Tecan (Spark 10M) at an excitation wavelength of 320 nm, and emission wavelengths of 620 nm and 665 nm, respectively. The intensity of the mutual binding of PD-1 and PD-L1 referred to the ratio of fluorescence signals Em665/Em620.
(5) The binding inhibition rate of the test compound was calculated as follows: Inhibition rate (%)=[1−(Fluorescence signal ratio of detection well-fluorescence signal ratio of 100% inhibition negative control)]/(fluorescence signal ratio of 0% inhibition positive control-fluorescence signal ratio of 100% inhibition negative control)×100%. After calculating the inhibition rate on PD-1/PD-L1 binding of the test compounds with different concentration gradients, the 50% inhibitory concentration (IC50) was calculated.
For orientation: In TR-FRET formats the signal depends on donor and acceptor labels being close together.

Test [2] concerns the target T2, CD80/PD-L1 binding (Homo sapiens, UniProt Q9NZQ7).
T2 construct: purchased Sino Biological Inc. 10084-H02H-100 (PD-L1-Fc); 10698-H08H-100 (His-CD80)
Kind of test: HTRF inhibition of CD80/PD-L1 binding in vitro. Particulars: His-CD80 100 nM, PD-L1-Fc 2 nM, read-out: IC50 inhibiting CD80/PD-L1 binding in vitro. An excerpt: In addition to PD-1, PD-L1 can also exert immunosuppressive activity by binding to CD80. Similarly, in vitro experiments of binding or binding inhibition of CD80 and PD-L1 can also be measured by homogeneous time-resolved fluorescence (HTRF). When the anti-hFc-Eu^3+ antibody and anti-His-XL665 antibody were bound to the hFC tag fused to PD-L1 and the His tag fused to CD80 respectively, and excited with a 320 nm wavelength laser, the binding of PD-L1 and CD80 enabled energy to be transferred from the Eu element to the XL665 fluorescein, which was excited to emit light. When the inhibitor of the interaction between PD-L1 and CD80 was added, the combination of the two was destroyed, so that the distance between Eu and XL665 was far away, the energy cannot be transferred, and XL665 would not be excited.
Recombinant human CD80 protein with His tag (His-CD80 protein, Cat #: 10698-H08H-100), and recombinant human PD-L1-Fc fusion protein (PD-L1-Fc fusion protein, Cat #: 10084-H02H-100) were purchased from Sino Biological Inc., anti-hFc-Eu^3+ antibody and anti-His-XL665 antibody were purchased from Cisbio Company, and other related reagents such as dilution buffer (Diluent buffer 5, Cat #: 62DL5DDC), detection buffer (PPI-Europium detection buffer, Cat #: 61DB9RDF) were purchased from Cisbio Company. Fluorescence detection instrument Tecan (Spark 10 M) was purchased from Switzerland Tecan Company.
(1) Experimental preparation: The test compound was diluted with dilution buffer into different concentration gradients (the highest final concentration in 20 μL final reaction system was 10 μM), His-CD80 protein was diluted to 800 nM (the final concentration in 20 μL final reaction system was 100 nM), and the PD-L1-Fc fusion protein was diluted to 16 nM (final concentration was 2 nM). The anti-His-XL665 antibody and anti-hFc-Eu^3+ antibody were respectively diluted 20 times and 100 times using the detection buffer according to the reagent requirements.
(2) 5 μL of test compound, 2.5 μL of Hid-CD80 protein and 2.5 μL of […] solution were mixed, and incubated at room temperature for 15 min. Then the system was added with 5 μL of anti-His-XL665 antibody and 5 μL of anti-hFc-Eu^3+ antibody, incubated for another 3 h, and then detected.
(3) When detecting the reaction, a control group was provided, including a 0% inhibition positive control without adding test compounds and a 100% inhibition negative control without adding CD-80 protein. All detections were performed with duplicates.
(4) The fluorescence signal of each well was measured using a fluorescence detector Tecan (Spark 10M) at an excitation wavelength of 320 nm, and emission wavelengths of 620 nm and 665 nm, respectively. The intensity of the mutual binding of CD80 and PD-L1 referred to the ratio of fluorescence signals Em665/Em620.
(5) The binding inhibition rate of the test compound was calculated as follows: Inhibition rate (%)=[1−(Fluorescence signal ratio of detection well-fluorescence signal ratio of 100% inhibition negative control)]/(fluorescence signal ratio of 0% inhibition positive control-fluorescence signal ratio of 100% inhibition negative control)×100%. After calculating the inhibition rate on CD80/PD-L1 binding of the test compounds with different concentration gradients, the 50% inhibitory concentration (IC50) was calculated.

T2 sequence (Q9NZQ7 19-239 limits assumed): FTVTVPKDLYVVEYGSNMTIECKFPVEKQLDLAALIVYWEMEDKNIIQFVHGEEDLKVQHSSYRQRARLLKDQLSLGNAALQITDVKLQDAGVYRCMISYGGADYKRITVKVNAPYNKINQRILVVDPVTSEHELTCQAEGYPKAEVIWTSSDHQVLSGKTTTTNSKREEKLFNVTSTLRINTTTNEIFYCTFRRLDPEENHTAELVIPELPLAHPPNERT
T1 sequence (Q9NZQ7 19-239 limits assumed): as above

`[2H]C([2H])([2H])n1c(C(=O)Nc2cccc(-c3cccc(NC(=O)c4nc5c(n4C([2H])([2H])[2H])CCN(CCC46CCC(COC)(CC4)C6)C5)c3Cl)c2C)nc2c1CCN(CCC13CCC(C(=O)O)(CC1)C3)C2` [Compound I-12, 4-(2-(2-((2′-chloro-3′-(5-(2-(4-(methoxymethyl)bicyclo[2.2.1]heptane-1-yl)ethyl)-1-(methyl-d3)-4,5,6,7-tetrahydro-1H-imidazo[4,5-c]pyridine-2-carboxamido)-2-methyl-[1,1′-biphenyl]-3-yl)carbamoyl)-1-(methyl-d3)-1,4,6,7-tetrahydro-5H-imidazo[4,5-c]pyridin-5-yl)ethyl)bicyclo [2.2.1]heptane-1-carboxylic acid]: the IC50 was 3.8 nM in test [1] and 2.94 nM in test [2].

For `[2H]c1c([2H])c(NC(=O)c2nc3c(n2C([2H])([2H])[2H])CCN(CCC24CCC(COC([2H])([2H])[2H])(CC2)C4)C3)c(Cl)c(-c2c([2H])c([2H])c([2H])c(NC(=O)c3nc4c(n3C([2H])([2H])[2H])CCN(CCC35CCC(C(=O)O)(CC3)C5)C4)c2Cl)c1[2H]` [Compound I-13, 4-(2-(2-((2,2′-dichloro-3′-(5-(2-(4-((methoxy-d3)methyl)bicyclo[2.2.1]heptane-1-yl)ethyl)-1-(methyl-d3)-4,5,6,7-tetrahydro-1H-imidazo[4,5-c]pyridine-2-carboxamido)-[1,1′-biphenyl]-3-yl-4,4′, 5,5′,6,6′-d6)carbamoyl)-1-(methyl-d3)-1,4,6,7-tetrahydro-5H-imidazo[4,5-c]pyridin-5-yl)ethyl)bicyclo[2.2.1]heptane-1-carboxylic acid], the results for the IC50 in test [1] and in test [2] were 1.23 nM and 1.44 nM, respectively.
